Here are results for 45 molecules from patent publication US8940892B2, “Triazine derivatives for use in the treatment of malaria” (CSIR, priority 2009, dated 2015).

The subject of data set [1] is Plasmodium falciparum (FCR-3). As to the kind of experiment: Antimalarial activity against Plasmodium falciparum FCR-3. The class given is cell-based. Conditions: FCR3, FCR-3 strain.
The nature of data set [2]: Cytotoxicity SRB assay (HeLa). Type of data set: cell-based. To be noted: human, HeLa cells, read-out: Cytotox SRB (HeLa) IC50.
The conditions of data set [3]: in vivo; cited from earlier work.
Data set [4] has as its system P. falciparum strains resistant to Pyr and CG. To be noted: even against strains highly resistant to other DHFR inhibitors; cited from earlier work.

The molecule `CC1(C)N=C(N)N=C(N)N1c1ccc(Cl)cc1` [No. 1, Cycloguanil, reference compound] came in with an IC50 in data set [1] of 8.15 ± 4.13 µM.
The same measure, in the same setting: to `NC1=NC(c2ccccc2)N(Cc2ccc(Cl)c(Cl)c2)C(N)=N1` (stereo not shown) [No. 2] belongs 4.32 ± 1.19 µM; to `NC1=NC(c2ccccc2)N(CCc2ccc(Cl)cc2)C(N)=N1` (stereo not shown) [No. 3], 7.16 ± 0.626 µM.
Same read-out and setting: next, `NC1=NC(c2ccccc2)N(CCc2ccc(Cl)c(Cl)c2)C(N)=N1` (stereo not shown) [No. 4]: 4.77 ± 0.297 µM; `NC1=NC(c2ccccc2)N(CCOc2ccc(Cl)cc2)C(N)=N1` (stereo not shown) [No. 5]: 4.83 ± 0.689 µM.
The molecule `NC1=NC(c2ccccc2)N(CCOc2ccc(Cl)c(Cl)c2)C(N)=N1` (stereo not shown) [No. 6] had an IC50 in data set [1] of 2.12 ± 0.75 µM.
Same read-out and setting: to `NC1=NC(c2ccccc2Cl)N(CCCCOc2ccc(Cl)c(Cl)c2)C(N)=N1` (stereo not shown) [No. 7] belongs 2.57 ± 0.7 µM.
As for `NC1=NC(c2ccccc2)N(CCCOc2ccc(Cl)cc2)C(N)=N1` (stereo not shown) [No. 8], the IC50 came out at 39 µM in data set [2] and 0.055 ± 0.01 µM in data set [1].
The matching figures for `NC1=NC(c2ccccc2)N(CCCOc2ccc(Cl)c(Cl)c2)C(N)=N1` (stereo not shown) [No. 9]: 33.5 µM and 0.0398 ± 0.01 µM.
In the case of `NC1=NC(c2ccc(C(F)(F)F)cc2)N(CCCOc2ccc(Cl)cc2)C(N)=N1` (stereo not shown) [No. 10], the IC50 in data set [2] is 11 µM; in data set [1] it was 3.37 ± 0.168 µM.
In the case of `NC1=NC(c2ccccc2)N(CCCOc2ccc(Cl)cc2Cl)C(N)=N1` (stereo not shown) [No. 11], the IC50 was 32.6 µM in data set [2] and 0.000151 ± 7.9e-05 µM in data set [1].
Turning to `NC1=NC(c2ccccc2)N(CCCOc2cccc(C(F)(F)F)c2)C(N)=N1` (stereo not shown) [No. 12], the IC50 in data set [2] stood at 14.2 µM; in data set [1], 0.0307 ± 0.0102 µM.
In the case of `COc1ccc(OCCCN2C(N)=NC(N)=NC2c2ccccc2)cc1` (stereo not shown) [No. 13], the IC50 turned out to be 253 µM in data set [2] and 0.0603 ± 0.0087 µM in data set [1].
Take `NC1=NC(c2ccccc2)N(CCCOc2ccccc2F)C(N)=N1` (stereo not shown) [No. 14]: the IC50 in data set [2] is 67.6 µM; in data set [1] it was 0.525 ± 0.0762 µM.
On to `NC1=NC(c2ccccc2)N(CCCOc2ccccc2Cl)C(N)=N1` (stereo not shown) [No. 15], for which the half-inhibitory concentration (IC50) in data set [2] worked out at 88.8 µM; in data set [1], 0.171 ± 0.027 µM.
For the molecule `NC1=NC(c2ccccc2)N(CCCOc2ccc(F)cc2)C(N)=N1` (stereo not shown) [No. 16], the IC50 in data set [1] was 0.395 ± 0.109 µM.
In data set [1], `NC1=NC(c2ccccc2)N(CCCOc2ccc(C(F)(F)F)cc2)C(N)=N1` (stereo not shown) [No. 17] showed an IC50 of 0.0444 ± 0.0068 µM.
With `NC1=NC(c2ccccc2Cl)N(CCCOc2ccc(Cl)cc2)C(N)=N1` (stereo not shown) [No. 18], the IC50 in data set [2] turned out to be 15.7 µM; in data set [1], 0.859 µM.
On to `COc1ccc(C2N=C(N)N=C(N)N2CCCOc2ccc(Cl)cc2)cc1` (stereo not shown) [No. 19], for which the IC50 is 25 µM in data set [2] and 0.046 ± 0.017 µM in data set [1].
Turning to `NC1=NC(c2ccc(Cl)c(F)c2)N(CCCOc2ccc(Cl)cc2)C(N)=N1` (stereo not shown) [No. 20], the IC50 in data set [2] worked out at 13.7 µM; in data set [1] it was 1.59 µM.
In the case of `NC1=NC(c2cccc(Cl)c2)N(CCCOc2ccc(Cl)cc2)C(N)=N1` (stereo not shown) [No. 21], the IC50 in data set [2] was found to be 14.1 µM; in data set [1], 0.156 ± 0.012 µM.
In data set [1], `NC1=NC(c2ccc(F)cc2)N(CCCOc2ccc(Cl)cc2)C(N)=N1` (stereo not shown) [No. 22] returned an IC50 of 0.155 ± 0.048 µM.
As to `NC1=NC(c2ccccc2F)N(CCCOc2ccc(Cl)cc2)C(N)=N1` (stereo not shown) [No. 23], the IC50 turned out to be 52.2 µM in data set [2] and 0.412 ± 0.08 µM in data set [1].
The like results for `NC1=NC(c2ccccc2C(F)(F)F)N(CCCOc2ccc(Cl)cc2)C(N)=N1` (stereo not shown) [No. 24] were, in that order, 19 µM and 3.24 ± 0.451 µM.
The like results for `NC1=NC(c2ccc(C(F)(F)F)cc2)N(CCCOc2ccc(Cl)c(Cl)c2)C(N)=N1` (stereo not shown) [No. 25] were, in that order, 13.1 µM and 4.53 ± 0.631 µM.
The matching figures for `NC1=NC(c2ccccc2C(F)(F)F)N(CCCOc2ccc(Cl)c(Cl)c2)C(N)=N1` (stereo not shown) [No. 26]: 11.8 µM and 3.06 ± 0.042 µM.
For `NC1=NC(c2cc(Cl)ccc2Cl)N(CCCOc2ccc(Cl)cc2)C(N)=N1` (stereo not shown) [No. 27], the IC50 in data set [2] is 10.9 µM; in data set [1] it was 0.926 ± 0.128 µM.
With `NC1=NC(c2ccccc2F)N(CCCOc2ccc(Cl)c(Cl)c2)C(N)=N1` (stereo not shown) [No. 28], the 50% inhibitory concentration (IC50) turned out to be 29.5 µM in data set [2] and 0.337 ± 0.095 µM in data set [1].
In data set [1], `NC1=NC(c2ccc(F)cc2)N(CCCOc2ccc(Cl)c(Cl)c2)C(N)=N1` (stereo not shown) [No. 29] had an IC50 of 35.8 ± 8.97 µM.
In the case of `NC1=NC(c2ccc(Cl)c(F)c2)N(CCCOc2ccc(Cl)c(Cl)c2)C(N)=N1` (stereo not shown) [No. 30], the figures for the IC50 in data set [2] and in data set [1] were 14.5 µM and 0.591 ± 0.077 µM, respectively.
`NC1=NC(c2ccccc2Cl)N(CCCOc2ccc(Cl)c(Cl)c2)C(N)=N1` (stereo not shown) [No. 31]: the results for the IC50 in data set [2] and in data set [1] were 13.7 µM and 8.61 ± 0.998 µM, respectively.
As to `NC1=NC(c2ccc(Cl)cc2)N(CCCOc2ccc(Cl)cc2)C(N)=N1` (stereo not shown) [No. 32], the IC50 in data set [2] came out at 15.6 µM; in data set [1], 0.156 ± 0.129 µM.
Turning to `NC1=NC(c2cccc(Cl)c2F)N(CCCOc2ccc(Cl)cc2)C(N)=N1` (stereo not shown) [No. 33], the values for the IC50 in data set [2] and in data set [1] were 23 µM and 0.679 ± 0.221 µM, respectively.
`NC1=NC(c2ccc(Cl)cc2)N(CCCOc2ccc(Cl)c(Cl)c2)C(N)=N1` (stereo not shown) [No. 34]: the IC50 came out at 13.4 µM in data set [2] and 0.061 ± 0.036 µM in data set [1].
The like results for `NC1=NC(c2cccc(Cl)c2F)N(CCCOc2ccc(Cl)c(Cl)c2)C(N)=N1` (stereo not shown) [No. 35] were, in that order, 13.6 µM and 0.098 ± 0.005 µM.
Molecule `NC1=NC(c2ccc(SC(F)(F)F)cc2)N(CCCOc2ccc(Cl)cc2)C(N)=N1` (stereo not shown) [No. 36] gave an IC50 in data set [1] of 2.39 ± 0.03 µM.
With `COc1cccc(C2N=C(N)N=C(N)N2CCCOc2ccc(Cl)cc2)c1F` (stereo not shown) [No. 37], the 50% inhibitory concentration (IC50) stood at 33.3 µM in data set [2] and 0.077 ± 0.032 µM in data set [1].
Take `NC1=NC(c2ccc(F)cc2F)N(CCCOc2ccc(Cl)cc2)C(N)=N1` (stereo not shown) [No. 38]: the results for the half-inhibitory concentration (IC50) in data set [2] and in data set [1] were 31.8 µM and 0.163 ± 0.05 µM, respectively.
For the molecule `NC1=NC(c2ccc(Cl)cc2Cl)N(CCCOc2ccc(Cl)cc2)C(N)=N1` (stereo not shown) [No. 39], the results for the IC50 in data set [2] and in data set [1] were 12.1 µM and 2.51 ± 0.667 µM, respectively.
On to `NC1=NC(c2cccc(OC(F)(F)F)c2)N(CCCOc2ccc(Cl)cc2)C(N)=N1` (stereo not shown) [No. 40], for which, in data set [1], the IC50 is greater than 50 µM.
On to `Cc1cccc(C2N=C(N)N=C(N)N2CCCOc2ccc(Cl)cc2)c1` (stereo not shown) [No. 41], for which half-maximal inhibition in data set [1] (IC50) required 0.05 ± 0.04 µM.
With `COc1cc(C)ccc1OCCCN1C(N)=NC(N)=NC1c1ccccc1` (stereo not shown) [No. 42], in data set [1], half-maximal inhibition (IC50) was put at 0.047 ± 0.01 µM.
Still for that read-out and setting: to `NC1=NC(c2ccccc2)N(CCCOc2ccc(Br)cc2)C(N)=N1` (stereo not shown) [No. 43] belongs 0.024 ± 0.017 µM; to `NC1=NC(c2ccc(C(F)(F)F)cc2)N(CCCCCOc2ccc(Cl)cc2)C(N)=N1` (stereo not shown) [No. 44], 3.98 ± 0.612 µM.
On to `CC1(C)N=C(N)N=C(N)N1OCCCOc1cc(Cl)c(Cl)cc1Cl` [WR99210], for which the “gastrointestinal (GI) tolerability” value in data set [3] is listed as “unacceptable”. For the same molecule, the “effective concentration in vitro” value in data set [4] is recorded as “nanomolar (nM) range”.

The IC50 is the concentration that inhibits the measured activity by half.
